Results on 27 molecules are retold here after US9346813B2, “Substituted pyrrolo[2,3-d]pyrimindines as CDK9 kinase inhibitors” (AbbVie Inc., priority 2014, dated 2016).

Usually IC50 stands for the concentration at which inhibition is half-maximal. Usually EC50 stands for the concentration giving half of the maximal effect. The low end stands for a more potent agent, the high end for a less potent agent.

One assay has as its target T1, CDK9/Cyclin T1 (Homo sapiens, UniProt P50750).
T1 construct: purchased Carna Biosciences 04-110
As to the kind of experiment: CDK9 enzyme protocol (LANCE ULight TR-FRET kinase assay). It counts as biochemical. The following applies: 4 nM CDK9/Cyclin T1, 1000 μM ATP, 100 nM U-light MBP peptide, 30 minutes. Here is the method: CDK9 enzyme activities were measured using LANCE ULight TR-FRET kinase assay reagents (PerkinElmer, Waltham, Mass.). Compounds were directly added in 100% DMSO to white low volume assay plates (Perkin Elmer Proxiplate 6008289) using a Labcyte Echo acoustic dispenser. Assay reagents in serine/threonine kinase assay buffer containing 20 mM HEPES, 10 mM MgCl2, 100 mM Na3VO4, and 0.0075% Triton X-100. were added for final reaction mixture concentrations of 1000 μM ATP, 100 nM U-light MBP peptide (Perkin Elmer TRF0109M) and reaction initiated with 4 nM CDK9/Cyclin T1 (Carna Biosciences 04-110). The kinase reaction was carried out for 30 minutes before addition of stopping buffer to a final of 20 mM EDTA and 0.5 nM of LANCE Ultra Europium anti-phospho-MBP antibody (PerkinElmer TRF0201M) in LANCE detection buffer (PerkinElmer CR97-100). The reaction was equilibrated for 1 hour and the signal read in the Perkin Elmer Envision in TR-FRET mode (excitation at 320 nm and emission at 615/665 nm).

The test system of another assay is H929 cells. As to the kind of experiment: Cell viability assay in H929 cells (Cell TiterGlo). It counts as cell-based. The following applies: Homo sapiens, NCI-H929, 24 hours at 37° C. Here is the method:
Cell viability assays were performed using A431 or H929 cells. A431 cells were seeded in 96-well plates at 10,000 cells/well, and after overnight incubation, treated with compounds at 2-times the final concentration to result in a dose response of 3-fold dilutions from 10 μM to 0.0005 μM (50 μL/well, 0.1% final DMSO concentration). H929 cells were seeded in 96-well plates at 10,000 cells/well and treated immediately with compounds as described above. After 24 hours at 37° C., cell viability was measured using Cell TiterGlo reagent (Promega) with a luminescence reader. Alternately, cell viability assays were performed in 384-well format. A431 cells were seeded in 384-well plates at 2500 cells/well and, after overnight incubation, treated with compounds in a dose response of 3-fold dilutions from 10 μM to 0.0005 μM (25 nL/well, 0.1% final DMSO concentration). For the H929 viability assay, 25 nL/well of the compounds was dispensed into 384-well plates in a dose response as described above and cells were immediately seeded in 384-well plates at 2500 cells/well. After 24 hours at 37° C., cell viability was measured using Cell TiterGlo reagent (Promega) with a luminescence reader.
Background: In ATP-based viability assays light output follows the ATP content of the culture.

Molecules are shown by their SMILES.

T1 sequence (P50750 whole entry): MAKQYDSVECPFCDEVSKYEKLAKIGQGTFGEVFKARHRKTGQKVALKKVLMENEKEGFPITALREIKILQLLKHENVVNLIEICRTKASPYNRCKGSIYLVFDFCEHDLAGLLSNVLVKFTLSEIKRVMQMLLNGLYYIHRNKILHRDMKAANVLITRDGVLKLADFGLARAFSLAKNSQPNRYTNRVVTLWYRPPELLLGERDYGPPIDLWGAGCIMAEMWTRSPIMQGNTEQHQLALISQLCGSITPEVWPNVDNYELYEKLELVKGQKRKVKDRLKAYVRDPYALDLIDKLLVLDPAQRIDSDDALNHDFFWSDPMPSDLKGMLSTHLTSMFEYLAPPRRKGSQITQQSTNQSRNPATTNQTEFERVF
T1 sequence (O60563 whole entry partner): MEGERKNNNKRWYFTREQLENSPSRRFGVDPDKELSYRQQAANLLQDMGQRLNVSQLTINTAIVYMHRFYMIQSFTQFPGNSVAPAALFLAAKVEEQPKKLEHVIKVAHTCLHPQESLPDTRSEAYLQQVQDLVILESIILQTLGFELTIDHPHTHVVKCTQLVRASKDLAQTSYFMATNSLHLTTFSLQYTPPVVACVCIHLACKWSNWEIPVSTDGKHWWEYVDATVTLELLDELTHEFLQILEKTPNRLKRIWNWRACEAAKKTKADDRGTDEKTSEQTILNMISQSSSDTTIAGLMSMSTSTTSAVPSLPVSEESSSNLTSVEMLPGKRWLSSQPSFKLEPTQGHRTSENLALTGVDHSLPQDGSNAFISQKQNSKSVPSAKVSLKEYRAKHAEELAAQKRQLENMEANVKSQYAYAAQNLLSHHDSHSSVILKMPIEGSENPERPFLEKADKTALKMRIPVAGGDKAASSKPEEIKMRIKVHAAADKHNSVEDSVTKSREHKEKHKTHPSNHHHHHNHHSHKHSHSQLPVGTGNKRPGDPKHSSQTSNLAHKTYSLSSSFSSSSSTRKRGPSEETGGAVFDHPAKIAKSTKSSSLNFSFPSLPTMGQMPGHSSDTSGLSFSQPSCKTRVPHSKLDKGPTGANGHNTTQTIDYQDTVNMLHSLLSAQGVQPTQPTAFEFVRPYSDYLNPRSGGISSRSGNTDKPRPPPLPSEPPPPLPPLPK

`CS(=O)(=O)N1CC=C(c2cc3c(N4CCC(F)(F)CC4)ncnc3[nH]2)CC1` [Example 63, 4-(4,4-difluoropiperidin-1-yl)-6-[1-(methylsulfonyl)-1,2,3,6-tetrahydropyridin-4-yl]-7H-pyrrolo[2,3-d]pyrimidine] displayed an IC50 at CDK9/Cyclin T1 of 1300 nM. For `CS(=O)(=O)N1CC=C(c2cc3c(-c4ccccc4C(F)(F)F)ncnc3[nH]2)CC1` [Example 47, 6-[1-(methylsulfonyl)-1,2,3,6-tetrahydropyridin-4-yl]-4-[2-(trifluoromethyl)phenyl]-7H-pyrrolo[2,3-d]pyrimidine], on CDK9/Cyclin T1, the IC50 turned out to be 1400 nM. The same measure, in the same setting: with `CS(=O)(=O)N1CC=C(c2cc3c(N4CCCC4)ncnc3[nH]2)CC1` [Example 62, 6-[1-(methylsulfonyl)-1,2,3,6-tetrahydropyridin-4-yl]-4-(pyrrolidin-1-yl)-7H-pyrrolo[2,3-d]pyrimidine] the figure was 5000 nM; with `CCOc1ccc(F)cc1-c1ncnc2[nH]c(C3=CCNCC3)cc12` [Example 67, 4-(2-ethoxy-5-fluorophenyl)-6-(1,2,3,6-tetrahydropyridin-4-yl)-7H-pyrrolo[2,3-d]pyrimidine], 300 nM; with `CC(C)Oc1ccc(F)c(-c2ncnc3[nH]c(C4=CCN(S(C)(=O)=O)CC4)cc23)c1` [Example 52, 4-[2-fluoro-5-(propan-2-yloxy)phenyl]-6-[1-(methylsulfonyl)-1,2,3,6-tetrahydropyridin-4-yl]-7H-pyrrolo[2,3-d]pyrimidine], 10100 nM. Still for that read-out and setting: with `Cc1ccc(OC(C)C)c(-c2ncnc3[nH]c(C4=CCN(S(C)(=O)=O)CC4)cc23)c1` [Example 43, 4-[5-methyl-2-(propan-2-yloxy)phenyl]-6-[1-(methylsulfonyl)-1,2,3,6-tetrahydropyridin-4-yl]-7H-pyrrolo[2,3-d]pyrimidine] the figure was over 12500 nM. In turn, `Cc1cc(Cl)cc(-c2ncnc3[nH]c(C4=CCN(S(C)(=O)=O)CC4)cc23)c1F` [Example 41, 4-(5-chloro-2-fluoro-3-methylphenyl)-6-[1-(methylsulfonyl)-1,2,3,6-tetrahydropyridin-4-yl]-7H-pyrrolo[2,3-d]pyrimidine] came in with an IC50 against CDK9/Cyclin T1 of 11700 nM.

On CDK9/Cyclin T1, `CS(=O)(=O)N1CC=C(c2cc3c(N4CCOCC4)ncnc3[nH]2)CC1` [Example 60, 6-[1-(methylsulfonyl)-1,2,3,6-tetrahydropyridin-4-yl]-4-(morpholin-4-yl)-7H-pyrrolo[2,3-d]pyrimidine] returned an IC50 of 4000 nM. This IC50 lies about 2.9-fold lower than the previous one. Take `COc1ccc(C)cc1-c1ncnc2[nH]c(C3=CCN(S(C)(=O)=O)CC3)cc12` [Example 44, 4-(2-methoxy-5-methylphenyl)-6-[1-(methylsulfonyl)-1,2,3,6-tetrahydropyridin-4-yl]-7H-pyrrolo[2,3-d]pyrimidine]: inhibition at CDK9/Cyclin T1 was half-maximal at 610 nM (IC50). In turn, `CCCCOc1ccc(F)cc1-c1ncnc2[nH]c(C3=CCN(S(C)(=O)=O)CC3)cc12` [Example 42, 4-(2-butoxy-5-fluorophenyl)-6-[1-(methylsulfonyl)-1,2,3,6-tetrahydropyridin-4-yl]-7H-pyrrolo[2,3-d]pyrimidine] registered an IC50 on CDK9/Cyclin T1 of 1200 nM. At CDK9/Cyclin T1, `Cc1ccc(F)c(-c2ncnc3[nH]c(C4=CCN(S(C)(=O)=O)CC4)cc23)c1` [Example 50, 4-(2-fluoro-5-methylphenyl)-6-[1-(methylsulfonyl)-1,2,3,6-tetrahydropyridin-4-yl]-7H-pyrrolo[2,3-d]pyrimidine] displayed an IC50 of 1000 nM. This IC50 and that of the molecule before are within 1.5-fold of each other. On CDK9/Cyclin T1, `CS(=O)(=O)N1CC=C(c2cc3c(N4CC(F)(F)C4)ncnc3[nH]2)CC1` [Example 64, 4-(3,3-difluoroazetidin-1-yl)-6-[1-(methylsulfonyl)-1,2,3,6-tetrahydropyridin-4-yl]-7H-pyrrolo[2,3-d]pyrimidine] returned an IC50 of 2000 nM. On CDK9/Cyclin T1, `CS(=O)(=O)N1CC=C(c2cc3c(-c4ccccc4OC(F)(F)F)ncnc3[nH]2)CC1` [Example 58, 6-[1-(methylsulfonyl)-1,2,3,6-tetrahydropyridin-4-yl]-4-[2-(trifluoromethoxy)phenyl]-7H-pyrrolo[2,3-d]pyrimidine] had an IC50 of over 12500 nM. Same read-out and setting: next, `CCCCOc1ccc(F)c(-c2ncnc3[nH]c(C4=CCN(S(C)(=O)=O)CC4)cc23)c1` [Example 54, 4-(5-butoxy-2-fluorophenyl)-6-[1-(methylsulfonyl)-1,2,3,6-tetrahydropyridin-4-yl]-7H-pyrrolo[2,3-d]pyrimidine]: 4100 nM.

As to `CCOc1ccc(F)cc1-c1ncnc2[nH]c(C3=CCN(C(=O)OC(C)(C)C)CC3)cc12` [Example 66, tert-butyl 4-[4-(2-ethoxy-5-fluorophenyl)-7H-pyrrolo[2,3-d]pyrimidin-6-yl]-3,6-dihydropyridine-1(2H)-carboxylate], the IC50 at CDK9/Cyclin T1 was found to be 1500 nM. Against the preceding molecule, the IC50 is about 2.7-fold lower. In the case of `Cn1cc(-c2ncnc3[nH]c(C4=CCN(S(C)(=O)=O)CC4)cc23)cn1` [Example 57, 4-(1-methyl-1H-pyrazol-4-yl)-6-[1-(methylsulfonyl)-1,2,3,6-tetrahydropyridin-4-yl]-7H-pyrrolo[2,3-d]pyrimidine], the IC50 against CDK9/Cyclin T1 was 2400 nM. Compared with the last molecule, the IC50 is about 1.6-fold higher. `CS(=O)(=O)Nc1cccc(-c2ncnc3[nH]c(C4=CCN(S(C)(=O)=O)CC4)cc23)c1` [Example 48, N-(3-{6-[1-(methylsulfonyl)-1,2,3,6-tetrahydropyridin-4-yl]-7H-pyrrolo[2,3-d]pyrimidin-4-yl}phenyl)methanesulfonamide] yielded an IC50 against CDK9/Cyclin T1 of 290 nM.

As to `CCCOc1ccc(C)cc1-c1ncnc2[nH]c(C3=CCN(S(C)(=O)=O)CC3)cc12` [Example 53, 4-(5-methyl-2-propoxyphenyl)-6-[1-(methylsulfonyl)-1,2,3,6-tetrahydropyridin-4-yl]-7H-pyrrolo[2,3-d]pyrimidine], on CDK9/Cyclin T1, half-maximal inhibition (IC50) was put at 2800 nM. On to `COc1ccc(F)cc1-c1ncnc2[nH]c(C3CCN(C)CC3)cc12` [Example 2, 4-(5-fluoro-2-methoxyphenyl)-6-(1-methylpiperidin-4-yl)-7H-pyrrolo[2,3-d]pyrimidine], for which the IC50 against CDK9/Cyclin T1 was 110 nM. This IC50 is about 25-fold lower than that of the molecule before.

`CS(=O)(=O)N1CC=C(c2cc3c(-c4cccc(OC(F)(F)F)c4)ncnc3[nH]2)CC1` [Example 56, 6-[1-(methylsulfonyl)-1,2,3,6-tetrahydropyridin-4-yl]-4-[3-(trifluoromethoxy)phenyl]-7H-pyrrolo[2,3-d]pyrimidine] came in with an IC50 against CDK9/Cyclin T1 of 1600 nM. Same read-out and setting: next, `CS(=O)(=O)N1CC=C(c2cc3c(-c4cc(NCc5ccccn5)ccc4F)ncnc3[nH]2)CC1` [Example 33, 4-fluoro-3-{6-[1-(methylsulfonyl)-1,2,3,6-tetrahydropyridin-4-yl]-7H-pyrrolo[2,3-d]pyrimidin-4-yl}-N-(pyridin-2-ylmethyl)aniline]: 300 nM; `CS(=O)(=O)N1CC=C(c2cc3c(-c4ccc(F)cc4F)ncnc3[nH]2)CC1` [Example 46, 4-(2,4-difluorophenyl)-6-[1-(methylsulfonyl)-1,2,3,6-tetrahydropyridin-4-yl]-7H-pyrrolo[2,3-d]pyrimidine]: 830 nM; `CCCOc1ccc(F)cc1-c1ncnc2[nH]c(C3=CCN(S(C)(=O)=O)CC3)cc12` [Example 49, 4-(5-fluoro-2-propoxyphenyl)-6-[1-(methylsulfonyl)-1,2,3,6-tetrahydropyridin-4-yl]-7H-pyrrolo[2,3-d]pyrimidine]: 1300 nM. Consider `COc1ccc(F)cc1-c1ncnc2[nH]c(C3=CCN(Cc4ccc(NC(=O)OC(C)(C)C)cc4)CC3)cc12` [Example 69, tert-butyl [4-({4-[4-(5-fluoro-2-methoxyphenyl)-7H-pyrrolo[2,3-d]pyrimidin-6-yl]-3,6-dihydropyridin-1(2H)-yl}methyl)phenyl]carbamate], for which, on CDK9/Cyclin T1, the IC50 was 450 nM.

In turn, `COc1ccc(F)cc1-c1ncnc2[nH]c(C3=CCN(CC(O)CO)CC3)cc12` (stereo not drawn) [Example 20, 3-{4-[4-(5-fluoro-2-methoxyphenyl)-7H-pyrrolo[2,3-d]pyrimidin-6-yl]-3,6-dihydropyridin-1(2H)-yl}propane-1,2-diol] yielded an EC50 in the assay on H929 cells of 380 nM. The molecule `COc1ccncc1-c1ncnc2[nH]c(C3=CCN(S(C)(=O)=O)CC3)cc12` [Example 59, 4-(4-methoxypyridin-3-yl)-6-[1-(methylsulfonyl)-1,2,3,6-tetrahydropyridin-4-yl]-7H-pyrrolo[2,3-d]pyrimidine] showed an IC50 on CDK9/Cyclin T1 of 910 nM.

`CS(=O)(=O)N1CC=C(c2cc3c(-c4cc(C(F)(F)F)ccc4F)ncnc3[nH]2)CC1` [Example 51, 4-[2-fluoro-5-(trifluoromethyl)phenyl]-6-[1-(methylsulfonyl)-1,2,3,6-tetrahydropyridin-4-yl]-7H-pyrrolo[2,3-d]pyrimidine]: the IC50 against CDK9/Cyclin T1 is over 12500 nM.
